US8101658B2, “Nitric oxide donating prostamides” (Nicox S.A., priority 2008, dated 2012)
“And” between values parts separate entries of the source, which are not always exact repeats. Identical values can stand only once. Marks after values point to notes of the source that are not given here.

Columns and labels:
[1] = tested on: ocular hypertensive non human primates; test: Intraocular pressure by pneumatonometry in ocular hypertensive primates; format: in vivo; details: ocular hypertensive primate, hypertensive eye, topical 2×25 μl drops in the evening, dose equimolar to 0.03% Bimatoprost; for ΔEmax (maximal IOP efficacy as compared to baseline): IOP at 12 and 18 h, n=8
Experimental: (§1) Intraocular pressure was measured by pneumatonometry in ocular normotensive dogs (Beagle) and ocular hypertensive non human primates (for example, although dosing different here, see hypertensive primates described by Toris, C. B.; Zhan, G.-L.; Feilmeier, M. R.; Camras, C. B.; McLaughlin, M. A. J. Ocular Pharm. Ther. 2006, 22, 86-92). As described, only one eye is hypertensive in this primate model. Studies were performed in conscious animals (n=8/study) trained to accept pneumatonometry. The test compound and controls were formulated in a 10 mM citrate buffer vehicle at pH 5.5 with 0.5% Tween 80 and 0.02% benzalkonium chloride, and were administered in the evening. All test compounds were formulated at a dose equimolar to 0.03% Bimatoprost. Intraocular pressure was measured at −12 (baseline), 12 and 18 hours post treatment. Tetracaine hydrochloride (0.5%) was used to anesthetize the cornea when the intraocular pressure measurements were taken.
(§2) In the primate model, the hypertensive eye received 2×25 μl volume drops of the test compound. After a washout period of one week, the ocular hypertensive eye was then dosed with Bimatoprost (2×25 μl volume drops) as a control. The contralateral, normotensive eye was not treated in the study. In the normotensive dog model, the test compound was administered topically to one eye in a 50 μl volume drop. The contralateral eye received a 50 μl volume drop of blank vehicle or Bimatoprost (in the case of the head-to-head study only) to serve as a control. Students paired t test was used to compare treatment with test compound vs vehicle or Bimatoprost control for significant differences.
(§3) Tables 2 and 3 describe the intraocular pressure (IOP) changes that were seen following topical application of novel NO-prostamides in ocular hypertensive non-human primates and normotensive dogs. ΔEmax represents the maximal efficacy as compared to baseline (BL) values. ΔΔEmax reflects the difference in IOP from compound-treated eye over that seen for vehicle-treated eye at the timepoint wherein maximum IOP reduction for compound was seen. The percent change from vehicle control was the percentage change in IOP reduction conferred by compound over that for vehicle (set at 100%). Tmax represents the time point at which maximum IOP reduction of compound was observed.

[2] = tested on: ocular normotensive dogs (Beagle); test: Intraocular pressure by pneumatonometry in ocular normotensive dogs; format: in vivo; details: normotensive dog; for ΔΔEmax (difference in IOP compound-treated eye over vehicle-treated eye at time of maximum reduction): topical 50 μl drop to one eye in the evening, contralateral eye vehicle, dose equimolar to 0.03% Bimatoprost, n=8; for % Change from vehicle control (IOP): topical 50 μl drop to one eye, contralateral eye vehicle (set at 100%)
Experimental: as §1, §2, §3

SMILES	% change from Baseline (IOP) [1]	ΔEmax (maximal IOP efficacy as compared to baseline) [1]	ΔΔEmax (difference in IOP compound-treated eye over vehicle-treated eye at time of maximum reduction) [2]	% Change from vehicle control (IOP) [2]
CCNC(=O)CCC/C=C\C[C@@H]1[C@@H](/C=C/[C@@H](O)CCc2ccccc2)[C@H](O)C[C@@H]1O [Bimatoprost, reference compound]	−13%	−4.8* mm Hg	−4.0** mm H/g	−16** %
CCNC(=O)CCC/C=C\C[C@@H]1[C@@H](/C=C/[C@H](CCc2ccccc2)OC(=O)CCCO[N+](=O)[O-])[C@H](O)C[C@@H]1O [Example A-1, (1S,2E)-3-{(1R,2R,3S,5R)-2-[(2Z)-7-(Ethylamino)-7-oxohept-2-en-1-yl]-3,5-dihydroxycyclopentyl}-1-(2-phenylethyl)prop-2-en-1-yl 4-(Nitrooxy)butanoate]			−3.6** mm H/g	−20** %
CCNC(=O)CCC/C=C\C[C@@H]1[C@@H](/C=C/[C@H](CCc2ccccc2)OC(=O)CCCCCO[N+](=O)[O-])[C@H](O)C[C@@H]1O [Example B-1, (1S,2E)-3-{(1R,2R,3S,5R)-2-[(2Z)-7-(Ethylamino)-7-oxohept-2-en-1-yl]-3,5-dihydroxycyclopentyl}-1-(2-phenylethyl)prop-2-en-1-yl 6-(Nitrooxy)hexanoate]	−24** %	−7.7** mm Hg		−28** % and −34** %
CCNC(=O)CCC/C=C\C[C@@H]1[C@@H](/C=C/[C@H](CCc2ccccc2)OC(=O)CCOCCOCCOCCO[N+](=O)[O-])[C@H](O)C[C@@H]1O [Example C-1, (1S,2E)-3-{(1R,2R,3S,5R)-2-[(2Z)-7-(Ethylamino)-7-oxohept-2-en-1-yl]-3,5-dihydroxycyclopentyl}-1-(2-phenylethyl)prop-2-en-1-yl 3-(2-{2-[2-(Nitrooxy)ethoxy]ethoxy}ethoxy)propanoate]			−3.6** mm H/g	-18%
CCNC(=O)CCC/C=C\C[C@@H]1[C@@H](/C=C/[C@@H](O)CCc2ccccc2)[C@H](OC(=O)CCCCCO[N+](=O)[O-])C[C@@H]1O [Example F-1, (1R,2R,3R,4S)-3-[(2Z)-7-(Ethylamino)-7-oxohept-2-en-1-yl]-4-hydroxy-2-[(1E,3S)-3-hydroxy-5-phenylpent-1-en-1-yl]cyclopentyl 6-(Nitrooxy)hexanoate]			−4.9** mm H/g	−25** %
CCNC(=O)CCC/C=C\C[C@@H]1[C@@H](/C=C/[C@@H](O)CCc2ccccc2)[C@H](OC(=O)OCCCCO[N+](=O)[O-])C[C@@H]1O [Example G-1, (2R,3R)-3-[(2Z)-7-(Ethylamino)-7-oxohept-2-en-1-yl]-4-hydroxy-2-[(1E,3S)-3-hydroxy-5-phenylpent-1-en-1-yl]cyclopentyl 4-(Nitrooxy)butyl Carbonate]			−3.8** mm H/g	-20%
